Measurements: patent publication US11617745B2, “Compositions and methods for generating hair cells by downregulating FOXO” (Frequency Therapeutics, Inc., priority 2018, dated 2023)
“Also recorded” adds a separate entry of the source.

System: cochlear Lgr5+ progenitor cells
Experiment: Expansion of Lgr5 cells in 3D culture, Lgr5-EGFP cells counted by flow cytometry
Type: cell-based, mice
Method: Neonatal Lgr5-EGFP-IRES-Cre-ER mice (The Jackson Laboratory, strain 8875) were used to analyze the effects of small molecules on cochlear stem cell expansion (see Barker et al., Nature 449, 1003-7 (2007). This strain allowed for visualization and quantification of EGFP cells.
All animal studies were conducted under an approved institutional protocol per National Institutes of Health guidelines. Using neonatal animals, cochleae were dissected and the organ of Corti (sensory epithelium) was separated from the stria vascularis (ion transport epithelium) and the modiolus (nerve tissue). Epithelia were then collected and treated with TrypLE for 15-20 minutes to obtain single cells. The cells were then filtered ([…]) and suspended in a Matrigel (Corning) dome for 3D culture seeded at 0.5 cochlea per well.
Expansion of Lgr5 Cells: Cells were cultured in a 3D system and bathed in a serum free 1:1 mixture of DMEM and F12, supplemented with Glutamax (GIBCO), N2, B27 (Invitrogen), EGF (50 ng/mL; Chemicon), bFGF (50 ng/mL; Chemicon), IGF-1 (50 ng/mL; Chemicon), and small molecules for seven days. Media was changed every other day. Treatments were run in triplicate or quadruplicate.
Quantification of Cell Proliferation: Lgr5 cells were quantified after 7-10 days. Cell colonies were dissociated into single cells using TrypLE. The cells were then stained with propidium iodide (PI) and analyzed using a flow cytometer to count Lgr5-EGFP cells. The percentage of viable Lgr5 cells was plotted against the concentration in GraphPad Prism.

In the case of CCn1cc(C(=O)O)c(=O)c2c(N)c(F)c(NC3CCCCC3)cc21 [AS1842856], the “expansion of cochlear Lgr5+ progenitor cells in culture” value (AS1842856 425 nM, background of EFI) is reported as “elicits the expansion”, the “enrichment of Lgr5 cells according to percentage” value (AS1842856 (425 nM) combined with VPA (1 mM), background of EFI) is reported as “enriched according to percentage” and the “Lgr5-GFP colony formation (images of Lgr5+ cell culture)” value (EFI-AS1842856 alone) is reported as “promotes Lgr5-GFP colony formation”. The “Lgr5-GFP colony enrichment (less Lgr5-negative cells in culture)” value (EFI-AS1842856 with VPA added) was “enriched when VPA is added” and the “concentration dependence of Lgr5+ cell growth, enrichment and expansion of cochlear progenitor cells” value (background of EFI, range of concentrations) was “enhances expansion of cochlear progenitor cells concentration-dependent manner; also recorded: concentration-dependent effects”.
